Test results reported in article PMC9161616, “A first-in-human phase 1/2 study of FGF401 and combination of FGF401 with spartalizumab in patients with hepatocellular carcinoma or biomarker-selected solid tumors” (Journal of Experimental & Clinical Cancer Research : CR, 2022).

Tested on: patients with HCC or other solid malignancies
Procedure: FGF401 was administered per oral under fasted condition or with low-fat meal on a continuous once daily (qd) regimen for both FGF401 single agent and in combination with spartalizumab. A 300-mg intravenous infusion of spartalizumab was administered once every three weeks (q3w) and 1 treatment cycle was defined as 21 days. The study treatment was administered until the patient experienced unacceptable toxicity, progressive disease and/or the treatment was discontinued at investigator’s discretion or patient’s withdrawal of consent. Figure 1 summarizes the study design and visit flow.
The secondary endpoints characterizing safety, efficacy, pharmacokinetics (PK), immunogenicity, and food effect properties of the FGF401 and the combination were based on the assessments on their respectively defined population sets. Adverse events (AEs) that emerged during treatment were monitored throughout the study until 30 days after discontinuation of the single agent and 150 days after discontinuation of the combination. Adverse events were coded using the Medical Dictionary for Regulatory Activities (MedDRA) and assessed as per Common Terminology Criteria for Adverse Events (CTCAE) version 4.03. The clinical laboratory assessments were collected no later than 30 days after the last date of study treatment administration. The grades were classified as low/normal/high when not defined by CTCAE v4.03. Other assessments of vital signs, physical examinations, and electrocardiogram (ECG) parameters were also performed.
Safety analyses conducted in the safety set constituted summaries for AEs occurring during on-treatment period with number and percentage of patients having at least 1 AE. Summaries presented overview of AEs and deaths (number and percentage of patients who died with any AE, SAE, dose reductions/interruptions, AE leading to discontinuation), SAEs, AEs related to study treatment, AEs leading to treatment discontinuation, dose interruption/adjustment or fatal outcome. Additionally, in combination part, summaries were produced using all treatment-related AEs starting or worsening during the on-treatment or extended safety follow-up periods (within 150 days after the date of last administration of study treatment).

[1] = single agent, All patients N = 160

COCCNc1cc(NC(=O)N2CCCc3cc(CN4CCN(C)CC4=O)c(C=O)nc32)ncc1C#N [FGF401, roblitinib]
patients who died on treatment because of existing cancer (17 patients of 160): 10.6% | discontinued treatment because of progressive disease (130 of 160 patients): 81% | patients who died on treatment (Twenty patients of 160): 12.5% | patients who died on treatment because of other reasons (gastric bleeding, multiple organ dysfunction syndrome, unknown cause): 3 patients | AEs leading to FGF401 discontinuation, All grades (human, in vivo): 18 (11.3) n (%) | AEs leading to FGF401 discontinuation, Grade 3 or 4 (human, in vivo): 13 (8.1) n (%) | AEs leading to FGF401 discontinuation, Treatment related, All grades (human, in vivo): 12 (7.5) n (%) | AEs leading to FGF401 discontinuation, Treatment related, Grade 3 or 4 (human, in vivo): 8 (5.0) n (%) | AEs leading to FGF401 dose adjustment/interruption, All grades (human, in vivo): 80 (50.0) n (%) | AEs leading to FGF401 dose adjustment/interruption, Grade 3 or 4 (human, in vivo): 58 (36.3) n (%) | AEs leading to FGF401 dose adjustment/interruption, Treatment related, All grades (human, in vivo): 47 (29.4) n (%) | AEs leading to FGF401 dose adjustment/interruption, Treatment related, Grade 3 or 4 (human, in vivo): 34 (21.3) n (%) | ALT increased leading to FGF401 discontinuation (human, in vivo): 3.8% | AST increased leading to FGF401 discontinuation (human, in vivo): 1.9% | Constipation, Grade 3/4 (human, in vivo): 0 n (%) | Decreased appetite, Grade 3/4 (human, in vivo): 0 n (%) | Edema peripheral, Grade 3/4 (human, in vivo): 0 n (%) | Grade 3 or 4 AEs suspected to be related to study treatment (human, in vivo): 31.9% | Grade 3 or 4 related ALT elevated (human, in vivo): 15.0% | Grade 3 or 4 related AST increased (human, in vivo): 18.8% | Grade 3 or 4 related diarrhea (human, in vivo): 5.0% | Nausea, Grade 3/4 (human, in vivo): 0 n (%) | Primary reason for end of treatment: Adverse event (human, in vivo): 18 (11.3) n (%) | Pyrexia, Grade 3/4 (human, in vivo): 0 n (%) | SAEs, Treatment related, Grade 3 or 4 (human, in vivo): 7 (4.4) n (%) | blood bilirubin increased leading to FGF401 discontinuation (human, in vivo): 2.5% | dose interruption due to AEs (human, in vivo): 52.5% | dose reduction due to AEs (human, in vivo): 18.1% | patients with a grade 3 or 4 AE (human, in vivo): 72.5% | patients with diarrhea (human, in vivo): 73.8% | patients with dose interruption (human, in vivo): 60.6% | patients with dose reduction (human, in vivo): 21.3% | patients with increased ALT (human, in vivo): 43.8% | patients with increased AST (human, in vivo): 47.5% | Primary reason for end of treatment: Death (single agent N=160): 2 (1.3) n (%) | Primary reason for end of treatment: Progressive disease (single agent N=160): 130 (81.3) n (%) | AEs, All grades [1]: 160 (100) n (%) | AEs, Grade 3 or 4 [1]: 116 (72.5) n (%) | AEs, Treatment related, All grades [1]: 148 (92.5) n (%) | AEs, Treatment related, Grade 3 or 4 [1]: 51 (31.9) n (%) | Fatal SAEs, All grades [1]: 3 (1.9) n (%) | Fatal SAEs, Grade 3 or 4 [1]: 3 (1.9) n (%) | Fatal SAEs, Treatment related, All grades [1]: 0 n (%) | Fatal SAEs, Treatment related, Grade 3 or 4 [1]: 0 n (%) | SAEs, All grades [1]: 70 (43.8) n (%) | SAEs, Grade 3 or 4 [1]: 55 (34.4) n (%) | SAEs, Treatment related, All grades [1]: 8 (5.0) n (%)
